Patent US9537110B2, “Chalcogen-containing organic compound and use thereof” (JNC CORPORATION, priority 2012, dated 2017)
In brackets after ≈: the same amount, converted by molar mass. Where two headings read alike, the source gives them in different places. Values belong to the molecule of their own block, whether it stands above or below them.

Experiments:
[1] = Evaluation of chemical stability by UV-Vis spectrum; format: physicochemical
Experimental: Then, 0.6951 mg of the compound synthesized in Example 3 was weighed, and dissolved into degassed benzonitrile (25 mL) using a measuring flask in a glove box (solution concentration: 4.92×10^−5 M). A prepared solution thereof was put into a UV cell with a cover, and a UV-Vis spectrum (device used: Jasco V-570 Spectrometer, made by JASCO Corporation) was immediately measured. Subsequently, opening and closing of the cover were repeated several times under atmospheric air to bring the solution into contact with oxygen in air.
Moreover, a film having a thickness of 100 nanometers formed by performing vacuum deposition of the compound synthesized in Example 3 was allowed to stand for one week in atmospheric air. The results obtained by measuring UV-Vis spectra (device used: Jasco V-570 Spectrometer, made by JASCO Corporation) over time during the period are shown in FIG. 6.

[2] = Solubility evaluation in organic solvents; format: physicochemical; conditions: room temperature; for solubility: organic solvent or mixture
Experimental: Solubility of the compound was evaluated. As a result, under room temperature, the compound was dissolved into chloroform at 381 g/L (20.5 wt. %), and into toluene at 137 g/L (13.6 wt. %). The compound is clearly found to show high solubility in any of solvent to allow use in an application process.
Solubility of the compound was evaluated. As a result, under room temperature, the compound was dissolved into chloroform at 43 g/L (2.8 wt. %), and into toluene at 23 g/L (2.6 wt. %). The compound is clearly found to show high solubility in any of solvent to allow use in an application process.

[3] = chloroform, read-out: Solubility in chloroform
[4] = toluene, read-out: Solubility in toluene

SMILES: c1ccc2cc3c(cc2c1)sc1cc2ccccc2cc13 [Comparative Example 1, dinaphtho[2,3-b:2′,3′-d]thiophene]
melting point: 282 to 283 °C

SMILES: CCCCCCCCCCc1ccc2cc3oc4cc5ccc(CCCCCCCCCC)cc5cc4c3cc2c1 [Example 1, 2,10-didecyldinaphtho[2,3-b:2′,3′-d]furan]
melting point: 175 to 176 °C

SMILES: CCCCCCc1ccc2cc3c(cc2c1)oc1cc2cc(CCCCCC)ccc2cc13 [Example 5, 3,9-dihexyldinaphtho[2,3-b:2′,3′-d]furan]
melting point: 198.7 to 199.1 °C

SMILES: CCCCCCCCc1cc2oc3cc(CCCCCCCC)c4ccccc4c3c2c2ccccc12 [Example 18, 5,9-dioctyldinaphtho[2,1-b:1′,2′-d]furan]
solubility [2, 3]: 381 mg/mL (≈ 773 mM)
solubility [2, 4]: 137 mg/mL (≈ 278 mM)
Solubility in chloroform ([2]; chloroform): 20.5 wt. %
Solubility in toluene ([2]; toluene): 13.6 wt. %

SMILES: c1ccc(-c2cc3oc4cc(-c5ccccc5)c5ccccc5c4c3c3ccccc23)cc1 [Example 20, 5,9-diphenyldinaphtho[2,1-b:1′,2′-d]furan]
solubility [2, 3]: 43 mg/mL (≈ 102 mM)
solubility [2, 4]: 23 mg/mL (≈ 54.7 mM)
Solubility in chloroform ([2]; chloroform): 2.8 wt. %
Solubility in toluene ([2]; toluene): 2.6 wt. %

Other lines, results leading:

melting point: 122 to 123 °C
SMILES: CCCCCCCCCCc1ccc2cc3sc4cc5ccc(CCCCCCCCCC)cc5cc4c3cc2c1 [Example 2, 2,10-didecyldinaphtho[2,3-b:2′,3′-d]thiophene]

Change of UV-Vis spectrum of solution ([1]; benzonitrile solution 4.92×10^−5 M, contact with oxygen in air, 3, 24 and 72 hours): no change of the spectrum was observed
Chemical stability (conclusion) ([1]; solution and film in air): chemically stable
Change of UV-Vis spectrum of film ([1]; vacuum-deposited film 100 nanometers, one week in atmospheric air): no change of the spectrum was observed
melting point: 216 to 217 °C
SMILES: CCCCCCCCCCc1ccc2cc3c(cc2c1)oc1cc2cc(CCCCCCCCCC)ccc2cc13 [Example 3, 3,9-didecyldinaphtho[2,3-b:2′,3′-d]furan]

melting point: 182 to 183 °C
SMILES: CCCCCCCCCCc1ccc2cc3c(cc2c1)sc1cc2cc(CCCCCCCCCC)ccc2cc13 [Example 6, 3,9-didecyldinaphtho[2,3-b:2′,3′-d]thiophene]

melting point: 202 to 202.4 °C
SMILES: CCCCCCc1ccc2cc3c(cc2c1)sc1cc2cc(CCCCCC)ccc2cc13 [Example 7, 3,9-dihexyldinaphtho[2,3-b:2′,3′-d]thiophene]

melting point: 193.7 to 194.8 °C
SMILES: CCCCCCCCc1ccc2cc3c(cc2c1)sc1cc2cc(CCCCCCCC)ccc2cc13 [Example 8, 3,9-dioctyldinaphtho[2,3-b:2′,3′-d]thiophene]
